This data set can be described thus: clinical studies using ibandronate in rapidly releasing coated oral administration forms (tolerability). It is filed as in vivo, patients. The source says: The film dissolving upon contact with digestive juice is preferably a coating which dissolves pH-independently. The adjuvant coating may be coated using methods common in pharmaceutical technology. […] This is particularly advantageous since the administration forms of the invention are also well-tolerated by patients lying in bed.

Setting [1] is: administration forms coated with a film which quickly releases the active substance.

Structures are written as SMILES.

For the molecule `CCCCCN(C)CCC(O)(P(=O)(O)O)P(=O)(O)O` [ibandronate, 1-hydroxy-3-(N-methyl-N-pentyl)aminopropyl-1,1-diphosphonic acid], under setting [1], the “irritations in the oesophagus when swallowing the tablets” value was “no irritations in the oesophagus” and the oesophagitis result is on record as “does not occur”. In addition, the “cases of nausea, vomiting, pain or diarrhoea” value (patients treated with rapidly releasing administration forms, compared to what is otherwise observed when administering aminobisphosphonates) is given as “significantly less cases”. In addition, the “side effects observed in clinical studies” value (peroral forms coated with film that dissolves pH-independently, even at high dosages) is listed as “no significant side effects”.

(Values after patent US20050089573A1, “Oral pharmaceutical formulation containing ibandronate” (F. HOFFMANN-LA ROCHE, priority 1996, published 2005).)
